Earlier results on one substance are cited in US6579851B2, “Effects of glucagon-like peptide-1 (7-36) on antro-pyloro-duodenal motility” (Amylin Pharmaceuticals, Inc., priority 2000, dated 2003).

For data set [1] the following is noted: in vivo; cited from earlier work.
Data set [2] has as its system gastroduodenal motility. Particulars: cited from earlier work.

On to Glucagon, for which the “Dose at which side effects (nausea and vomiting) can appear” value in data set [1] is 1 mg. Further, the “Effect on contractions in the antrum” value in data set [2] (doses as high as 2 mg) was “does not reduce contractions in the antrum”. The “Minimally effective dose for reduction in gastroduodenal motility” value in data set [2] (in vivo) is 0.5 mg.
